Reference: patent US20210169854A1, “3'-[(2Z)-[1-(3,4-dimethylphenyl)-1,5-dihydro-3-methyl-5-oxo-4H-pyrazol-4-ylidene]hydrazino]-2'-hydroxy-[1,1'-biphenyl]-3-carboxylic acid and its salts formulation” (NOVARTIS AG, priority 2019, published 2021)
Read-outs that look alike come from different tables or passages of the source.

Tests used:
[1] = cited from earlier work
[2] = cited from earlier work; remark: listed apart in the source
[3] = Solubility and permeability of eltrombopag (general statements, data not shown); format: physicochemical; conditions: even in the form of bis-monoethanolamine salt
[4] = standard high-fat breakfast; cited from earlier work
[5] = cited from earlier work; remark: listed apart in the source
[6] = single 25-mg dose for oral suspension 2 hours after the high-calcium meal
[7] = single 25-mg dose for oral suspension 2 hours before the high-calcium meal
[8] = single 25-mg dose for oral suspension with a high-calcium, moderate-fat, moderate-calorie meal

Structure (SMILES) | AUC elevation compared with the fasted state ([1]; after a high fat meal) [fold] | Cmax elevation compared with the fasted state ([1]; after a high fat meal) [fold] | AUC elevated compared with the fasted state ([1]; after a low fat meal) [fold] | Cmax elevated compared with the fasted state ([1]; after a low fat meal) [fold] | solubility (BCS context) [2] | solubility in water and in a number of liquid/semisolid surfactants [3] | decrease of plasma eltrombopag AUCO-∞ [4] | decrease of plasma eltrombopag Cmax [4] [%] | reduction of plasma eltrombopag AUCO-∞ [5, 6] [%] | reduction of plasma eltrombopag Cmax [5, 6] [%] | reduction of plasma eltrombopag AUCO-∞ [5, 7] [%] | reduction of plasma eltrombopag Cmax [5, 7] [%] | reduction of plasma eltrombopag AUCO-∞ [5, 8] [%] | reduction of plasma eltrombopag Cmax [5, 8] [%]
C[C@]12CC[C@H](O)CC1=CC[C@@H]1[C@@H]2CC[C@]2(C)C(c3cccnc3)=CC[C@@H]12 [abiraterone] | 10 | 17 | 5 | 7 | – | – | – | – | – | – | – | – | – | –
CC1=NN(c2ccc(C)c(C)c2)C(=O)/C1=N\Nc1cccc(-c2cccc(C(=O)O)c2)c1O [eltrombopag, 3′-[(2Z)-[1-(3,4-dimethylphenyl)-1,5-dihydro-3-methyl-5-oxo-4H-pyrazol-4-ylidene]hydrazino]-2′-hydroxy-[1,1′-biphenyl]-3-carboxylic acid] | – | – | – | – | low soluble | low solubility | approximately 59% | 65 | 47 | 48 | 20 | 14 | 75 | 79
